Test results as given in patent US20080152640A1, “Means and Methods For Treating a Disease Which is Associated With an Excess Transport of Hyaluronan Across a Lipid Bilayer” (priority 2003, published 2008).

Tests used:
[1] = test system: human fibroblasts; test: Hyaluronan production of human fibroblasts (ELISA of culture medium); format: cell-based; conditions: Fibroblast; human fibroblasts, culture medium; read-out: HA production (IC50)
[2] = test system: hyaluronan synthase; conditions: read-out: HA synthase activity (IC50); membranes of human fibroblasts
[3] = target: MRP5 (Homo sapiens, UniProt O15440); conditions: cited from earlier work
Chain of MRP5 (O15440 whole entry): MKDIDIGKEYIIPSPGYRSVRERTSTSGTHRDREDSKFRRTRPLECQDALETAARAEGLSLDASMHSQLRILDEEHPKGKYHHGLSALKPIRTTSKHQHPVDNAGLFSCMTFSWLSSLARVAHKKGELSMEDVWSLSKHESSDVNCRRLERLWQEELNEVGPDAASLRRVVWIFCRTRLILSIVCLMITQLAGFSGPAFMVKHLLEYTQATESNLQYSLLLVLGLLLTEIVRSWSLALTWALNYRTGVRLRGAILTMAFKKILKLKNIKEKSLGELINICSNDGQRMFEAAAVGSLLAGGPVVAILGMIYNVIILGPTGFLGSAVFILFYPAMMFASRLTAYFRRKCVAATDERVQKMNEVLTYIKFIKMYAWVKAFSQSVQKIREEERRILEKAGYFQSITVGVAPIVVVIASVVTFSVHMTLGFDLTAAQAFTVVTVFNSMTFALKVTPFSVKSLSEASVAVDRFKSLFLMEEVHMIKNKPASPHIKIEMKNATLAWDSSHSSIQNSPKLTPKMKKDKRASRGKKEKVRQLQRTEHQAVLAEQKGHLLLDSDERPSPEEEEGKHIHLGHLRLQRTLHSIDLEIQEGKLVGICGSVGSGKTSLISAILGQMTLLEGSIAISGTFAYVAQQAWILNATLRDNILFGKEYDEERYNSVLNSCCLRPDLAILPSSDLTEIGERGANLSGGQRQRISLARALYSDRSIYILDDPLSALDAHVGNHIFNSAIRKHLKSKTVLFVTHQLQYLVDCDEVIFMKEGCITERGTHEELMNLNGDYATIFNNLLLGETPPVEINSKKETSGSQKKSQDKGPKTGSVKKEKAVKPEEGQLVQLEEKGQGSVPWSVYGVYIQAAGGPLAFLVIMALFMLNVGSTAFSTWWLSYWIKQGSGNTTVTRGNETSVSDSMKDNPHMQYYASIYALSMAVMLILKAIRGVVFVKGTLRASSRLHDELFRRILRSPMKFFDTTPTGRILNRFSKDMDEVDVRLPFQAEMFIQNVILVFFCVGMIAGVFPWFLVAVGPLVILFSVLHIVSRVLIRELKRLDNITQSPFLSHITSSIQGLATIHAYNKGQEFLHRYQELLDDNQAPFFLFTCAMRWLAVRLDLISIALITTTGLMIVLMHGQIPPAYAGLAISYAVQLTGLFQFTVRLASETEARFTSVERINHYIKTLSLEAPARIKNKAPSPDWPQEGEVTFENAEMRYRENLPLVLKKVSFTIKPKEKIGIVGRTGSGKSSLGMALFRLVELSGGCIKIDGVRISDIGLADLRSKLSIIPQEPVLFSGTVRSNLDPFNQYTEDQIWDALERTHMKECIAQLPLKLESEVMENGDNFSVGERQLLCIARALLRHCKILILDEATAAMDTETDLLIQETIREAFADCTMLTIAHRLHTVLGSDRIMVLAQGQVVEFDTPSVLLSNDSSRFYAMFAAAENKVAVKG

[4] = target: T1, MRP7 (Homo sapiens, UniProt Q5T3U5); conditions: cited from earlier work
T1 sequence (Q5T3U5 1-1492): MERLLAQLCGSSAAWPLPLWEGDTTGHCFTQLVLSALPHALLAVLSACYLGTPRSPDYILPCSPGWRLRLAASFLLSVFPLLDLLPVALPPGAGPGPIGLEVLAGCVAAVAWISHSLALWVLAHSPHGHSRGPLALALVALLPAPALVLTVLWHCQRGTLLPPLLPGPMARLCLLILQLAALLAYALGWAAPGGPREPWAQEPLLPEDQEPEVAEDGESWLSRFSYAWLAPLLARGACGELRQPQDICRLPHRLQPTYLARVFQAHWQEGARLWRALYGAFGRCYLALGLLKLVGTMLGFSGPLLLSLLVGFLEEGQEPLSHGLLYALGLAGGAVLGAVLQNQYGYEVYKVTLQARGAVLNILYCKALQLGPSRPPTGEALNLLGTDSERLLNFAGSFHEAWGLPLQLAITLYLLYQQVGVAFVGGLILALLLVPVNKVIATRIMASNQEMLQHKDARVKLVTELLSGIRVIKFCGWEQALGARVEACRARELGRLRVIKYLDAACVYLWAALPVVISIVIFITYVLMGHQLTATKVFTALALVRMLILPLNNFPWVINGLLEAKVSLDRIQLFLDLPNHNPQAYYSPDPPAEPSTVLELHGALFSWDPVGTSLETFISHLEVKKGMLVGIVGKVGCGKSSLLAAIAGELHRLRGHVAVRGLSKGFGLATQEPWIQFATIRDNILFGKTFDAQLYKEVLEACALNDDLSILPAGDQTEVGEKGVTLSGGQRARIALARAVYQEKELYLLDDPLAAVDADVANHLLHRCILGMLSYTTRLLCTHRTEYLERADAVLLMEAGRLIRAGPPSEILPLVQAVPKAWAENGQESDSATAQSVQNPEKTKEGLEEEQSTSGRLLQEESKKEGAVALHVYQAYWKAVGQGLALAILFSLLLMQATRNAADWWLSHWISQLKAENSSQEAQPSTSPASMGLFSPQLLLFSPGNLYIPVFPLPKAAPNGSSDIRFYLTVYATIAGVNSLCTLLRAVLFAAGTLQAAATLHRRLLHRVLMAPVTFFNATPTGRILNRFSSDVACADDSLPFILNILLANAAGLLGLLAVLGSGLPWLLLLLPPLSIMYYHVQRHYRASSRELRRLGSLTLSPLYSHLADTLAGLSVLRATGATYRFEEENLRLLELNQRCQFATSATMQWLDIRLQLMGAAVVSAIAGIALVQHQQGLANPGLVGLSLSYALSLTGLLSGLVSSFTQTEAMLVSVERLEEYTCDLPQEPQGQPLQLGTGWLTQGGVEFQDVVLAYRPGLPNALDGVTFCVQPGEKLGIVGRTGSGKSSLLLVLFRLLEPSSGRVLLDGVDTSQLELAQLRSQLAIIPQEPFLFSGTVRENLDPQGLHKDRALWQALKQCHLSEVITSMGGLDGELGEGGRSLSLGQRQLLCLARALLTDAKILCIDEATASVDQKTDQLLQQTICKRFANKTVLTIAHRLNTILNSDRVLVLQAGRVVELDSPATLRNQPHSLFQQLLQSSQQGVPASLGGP

CCCN(CCC)S(=O)(=O)c1ccc(C(=O)O)cc1 [Probenecid]
IC50 [1]: 200 µM
IC50 [2]: 200 µM
inhibition of MRP5 mediated transport of cGMP ([3]; at a concentration of 50 μM): 68%
IC50 ([3]; substrate PMEA, read-out: IC50, PMEA transport by MRP5): 200 µM
concentration inhibiting export of fluorescein diacetate by MRP5 ([3]; substrate fluorescein diacetate): 1 mM
inhibition of 17β-glucuronosyl-estradiol export by MRP7 [4]: weak inhibitor
published inhibitory concentrations IC50 or Ki, MRP7 [4]: weak
